Measured values published in patent US11236087B2, “Highly active pyrazolo-piperidine substituted indole-2-carboxamides active against the hepatitis B virus (HBV)” (AiCuris GmbH & Co. KG, priority 2017, dated 2022).

Tests used:
[1] = system: HBV; assay: Determination of HBV DNA from the supernatants of HepAD38 cells (anti-HBV activity); type: cell-based, hepatitis B virus; details: Hepatitis B virus, 144 h; HBV DNA in HepAD38 supernatant, day 6, qPCR; read-out: Cell Activity (EC50)
How it was run: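 HepAD38 cells, tetracycline withdrawn to induce HBV, treated with serial half-log compound dilutions; on day 6 HBV DNA purified from filtered supernatant and quantified by real-time PCR against HBV plasmid standards; EC50 from relative copy numbers by non-linear regression, three experiments in triplicate.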

[2] = molecular target: T1, HBV core protein (UniProt P03146); assay: Biochemical capsid assembly assay (fluorescence quenching); design: species or system hepatitis B virus; details: read-out: Assembly Activity (IC50); BODIPY-FL labelled core protein, 300 μM NaCl, read 6 min after start
T1 construct: fused on or other part: BODIPY-FL maleimide label on the C-terminal Cys150
T1 sequence (P03146 whole entry, looked up, the tested form may be a part): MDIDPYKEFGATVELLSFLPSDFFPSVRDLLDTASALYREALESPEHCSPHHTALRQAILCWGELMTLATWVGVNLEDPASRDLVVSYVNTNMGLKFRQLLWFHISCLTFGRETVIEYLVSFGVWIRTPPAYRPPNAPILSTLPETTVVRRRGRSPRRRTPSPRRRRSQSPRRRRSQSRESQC
How it was run: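 Purified E. coli-expressed HBV core protein (aa 1-149 plus Cys150), BODIPY-FL maleimide-labelled, at 1.0-2.0 μM in 50 mM HEPES pH 7.5 with 0.5% DMSO was used. Compounds were tested at 8 concentrations (0.5-log dilutions from 100, 31.6 or 10 μM). Assembly was started with NaCl ([…]), and fluorescence quenching was read after 6 min (ex 477/em 525 nm). EC50 was determined by non-linear regression.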

[3] = Cell viability assay (AlamarBlue) in HepAD38 cells; details: human

Structure (SMILES) | EC50 [1] | IC50 [2] | CC50 at 6 days [3]
CN(CCCO)C(=O)c1n[nH]c2c1CN(C(=O)c1cc3ccccc3[nH]1)CC2 [Example 102, N-(3-hydroxypropyl)-5-(1H-indole-2-carbonyl)-N-methyl-1H,4H,5H,6H,7H-pyrazolo[4,3-c]pyridine-3-carboxamide] | < 1 µM | < 5 µM | > 100 µM
O=C(c1cc2c(Cl)cc(F)cc2[nH]1)N1CCc2[nH]nc(C3CCCO3)c2C1 (stereo not drawn) [Example 341, 4-chloro-6-fluoro-2-[3-(oxolan-2-yl)-1H,4H,5H,6H,7H-pyrazolo[4,3-c]pyridine-5-carbonyl]-1H-indole] | < 1 µM | < 5 µM | > 10 µM
CN(c1n[nH]c2c1CN(C(=O)c1cc3ccccc3[nH]1)CC2)S(C)(=O)=O [Example 74, N-[5-(1H-indole-2-carbonyl)-1H,4H,5H,6H,7H-pyrazolo[4,3-c]pyridin-3-yl]-N-methylmethanesulfonamide] | 1 to 25 µM | < 100 µM | > 100 µM
CN(C(=O)c1n[nH]c2c1CN(C(=O)c1cc3ccccc3[nH]1)CC2)C1(C(F)(F)F)CC1 [Example 310, 5-(1H-indole-2-carbonyl)-N-methyl-N-[1-(trifluoromethyl)cyclopropyl]-1H,4H,5H,6H,7H-pyrazolo[4,3-c]pyridine-3-carboxamide] | 1 to 25 µM | < 100 µM | > 10 µM
CCc1cc(F)cc2[nH]c(C(=O)N3CCc4[nH]nc(C(=O)N(C)C5(CO)CC5)c4C3)cc12 [Example 271, 5-(4-ethyl-6-fluoro-1H-indole-2-carbonyl)-N-[1-(hydroxymethyl)cyclopropyl]-N-methyl-1H,4H,5H,6H,7H-pyrazolo[4,3-c]pyridine-3-carboxamide] | < 1 µM | < 5 µM | > 10 µM
CC(C)(O)C1CN(C(=O)c2n[nH]c3c2CN(C(=O)c2cc4ccccc4[nH]2)CC3)C1 [Example 39, 2-{1-[5-(1H-indole-2-carbonyl)-1H,4H,5H,6H,7H-pyrazolo[4,3-c]pyridine-3-carbonyl]azetidin-3-yl}propan-2-ol] | 1 to 25 µM | < 100 µM | > 32 µM
O=C(c1cc2ccccc2[nH]1)N1CCc2[nH]nc(C3CCC3)c2C1 [Example 167, 2-{3-cyclobutyl-1H,4H,5H,6H,7H-pyrazolo[4,3-c]pyridine-5-carbonyl}-1H-indole] | < 1 µM | < 5 µM | > 10 µM
CN(CCO)C(=O)c1n[nH]c2c1CN(C(=O)c1cc3c(C(F)F)ccc(F)c3[nH]1)CC2 [Example 172, 5-[4-(difluoromethyl)-7-fluoro-1H-indole-2-carbonyl]-N-(2-hydroxyethyl)-N-methyl-1H,4H,5H,6H,7H-pyrazolo[4,3-c]pyridine-3-carboxamide] | 1 to 25 µM | < 5 µM | > 10 µM
CN(C)c1n[nH]c2c1CN(C(=O)c1cc3ccccc3[nH]1)CC2 [Example 75, 5-(1H-indole-2-carbonyl)-N,N-dimethyl-1H,4H,5H,6H,7H-pyrazolo[4,3-c]pyridin-3-amine] | < 1 µM | 5 to 10 µM | > 100 µM
O=C(c1cc2cccc(Cl)c2[nH]1)N1CCc2[nH]ncc2C1 [Example 120, 7-chloro-2-{1H,4H,5H,6H,7H-pyrazolo[4,3-c]pyridine-5-carbonyl}-1H-indole] | < 1 µM | 5 to 10 µM | > 100 µM
CN(C(=O)c1n[nH]c2c1CN(C(=O)c1cc3ccccc3[nH]1)CC2)C1CCOCC1 [Example 199, 5-(1H-indole-2-carbonyl)-N-methyl-N-(oxan-4-yl)-1H,4H,5H,6H,7H-pyrazolo[4,3-c]pyridine-3-carboxamide] | 1 to 25 µM | < 100 µM | > 10 µM
CC1(C)CCCCN1C(=O)c1n[nH]c2c1CN(C(=O)c1cc3ccccc3[nH]1)CC2 [Example 165, 2-[3-(2,2-dimethylpiperidine-1-carbonyl)-1H,4H,5H,6H,7H-pyrazolo[4,3-c]pyridine-5-carbonyl]-1H-indole] | < 1 µM | 5 to 10 µM | > 10 µM
CN(C(=O)c1[nH]nc2c1CN(C(=O)c1cc3c(Cl)c(F)ccc3[nH]1)CC2)C1CC1 [Example 324, 5-(4-chloro-5-fluoro-1H-indole-2-carbonyl)-N-cyclopropyl-N-methyl-2H,4H,5H,6H,7H-pyrazolo[4,3-c]pyridine-3-carboxamide] | < 1 µM | < 5 µM | > 10 µM
[2H]C([2H])([2H])N(C(=O)c1n[nH]c2c1CN(C(=O)c1cc3ccccc3[nH]1)CC2)C1(COC)CC1 [Example 201, 5-(1H-indole-2-carbonyl)-N-[1-(methoxymethyl)cyclopropyl]-N-(2H3)methyl-1H,4H,5H,6H,7H-pyrazolo[4,3-c]pyridine-3-carboxamide] | < 1 µM | < 5 µM | > 10 µM
C#CCOCC1(N(C)C(=O)c2n[nH]c3c2CN(C(=O)c2cc4ccccc4[nH]2)CC3)CC1 [Example 315, 5-(1H-indole-2-carbonyl)-N-methyl-N-{1-[(prop-2-yn-1-yloxy)methyl]cyclopropyl}-1H,4H,5H,6H,7H-pyrazolo[4,3-c]pyridine-3-carboxamide] | < 1 µM | < 5 µM | > 10 µM
COCC1(N(C)C(=O)c2n[nH]c3c2CN(C(=O)c2cc4ccccc4[nH]2)CC3)CC1 [Example 155, 5-(1H-indole-2-carbonyl)-N-[1-(methoxymethyl)cyclopropyl]-N-methyl-1H,4H,5H,6H,7H-pyrazolo[4,3-c]pyridine-3-carboxamide] | < 1 µM | < 5 µM | > 10 µM
CN(CCO)C(=O)c1n[nH]c2c1CN(C(=O)c1cc3c(C(C)(F)F)cccc3[nH]1)CC2 [Example 5, 5-[4-(1,1-difluoroethyl)-1H-indole-2-carbonyl]-N-(2-hydroxyethyl)-N-methyl-1H,4H,5H,6H,7H-pyrazolo[4,3-c]pyridine-3-carboxamide] | < 100 µM | < 5 µM | > 32 µM
CCN(C(=O)c1n[nH]c2c1CN(C(=O)c1cc3ccccc3[nH]1)CC2)C1COC1 [Example 185, N-ethyl-5-(1H-indole-2-carbonyl)-N-(oxetan-3-yl)-1H,4H,5H,6H,7H-pyrazolo[4,3-c]pyridine-3-carboxamide] | < 1 µM | 5 to 10 µM | > 10 µM
CN(Cc1ccccc1)C(=O)c1n[nH]c2c1CN(C(=O)c1cc3ccccc3[nH]1)CC2 [Example 178, N-benzyl-5-(1H-indole-2-carbonyl)-N-methyl-1H4H,5H,6H,7H-pyrazolo[4,3-c]pyridine-3-carboxamide] | < 1 µM | < 5 µM | > 10 µM
CN(C(=O)c1n[nH]c2c1CN(C(=O)c1cc3ccccc3[nH]1)CC2)[C@@H]1CCCC[C@H]1O (racemic) [Example 192, N-[(±)-2-hydroxycyclohexyl]-5-(1H-indole-2-carbonyl)-N-methyl-1H,4H,5H,6H,7H-pyrazolo[4,3-c]pyridine-3-carboxamide] | < 1 µM | 5 to 10 µM | > 10 µM
COCCC1(N(C)C(=O)c2[nH]nc3c2CN(C(=O)c2cc4ccccc4[nH]2)CC3)CC1 [Example 248, 5-(1H-indole-2-carbonyl)-N-[1-(2-methoxyethyl)cyclopropyl]-N-methyl-2H,4H,5H,6H,7H-pyrazolo[4,3-c]pyridine-3-carboxamide] | < 1 µM | < 5 µM | > 10 µM
CCOCC1(N(C)C(=O)c2n[nH]c3c2CN(C(=O)c2cc4ccccc4[nH]2)CC3)CC1 [Example 207, N-[1-(ethoxymethyl)cyclopropyl]-5-(1H-indole-2-carbonyl)-N-methyl-1H,4H,5H,6H,7H-pyrazolo[4,3-c]pyridine-3-carboxamide] | < 1 µM | < 5 µM | > 10 µM
CCc1cc(F)cc2[nH]c(C(=O)N3CCc4n[nH]c(C(=O)N(C)C5CC5)c4C3)cc12 [Example 330, N-cyclopropyl-5-(4-ethyl-6-fluoro-1H-indole-2-carbonyl)-N-methyl-2H,4H,5H,6H,7H-pyrazolo[4,3-c]pyridine-3-carboxamide] | < 1 µM | < 5 µM | > 10 µM
O=C(c1cc2ccccc2[nH]1)N1CCc2[nH]nc(C(=O)N3C[C@@H]4[C@@H](O)[C@@H]4C3)c2C1 [Example 176, (±)-3-[5-(1H-indole-2-carbonyl)-1H,4H,5H,6H,7H-pyrazolo[4,3-c]pyridine-3-carbonyl]-3-azabicyclo[3.1.0]hexan-6-ol] | 1 to 25 µM | 5 to 10 µM | > 10 µM
O=C(c1cc2ccccc2[nH]1)N1CCc2[nH]nc(C3CCCO3)c2C1 (stereo not drawn) [Example 344, 2-[3-(oxolan-2-yl)-1H,4H,5H,6H,7H-pyrazolo[4,3-c]pyridine-5-carbonyl]-1H-indole] | < 1 µM | < 5 µM | > 10 µM
CN(CCO)C(=O)c1n[nH]c2c1CN(C(=O)c1cc3c(Cl)cc(F)cc3[nH]1)CC2 [Example 60, 5-(4-chloro-6-fluoro-1H-indole-2-carbonyl)-N-(2-hydroxyethyl)-N-methyl-1H,4H,5H,6H,7H-pyrazolo[4,3-c]pyridine-3-carboxamide] | < 1 µM | < 5 µM | > 32 µM
